Source: patent US20060116410A1, “4-Aminomethyl benzamidine derivatives” (priority 2004, published 2006)
Structures can show the parent of a compound that is named as a salt.

Biological target: T1, factor VIIa/tissue factor complex (Homo sapiens, UniProt P08709)
T1 construct: 9 nM of soluble factor VIIa
Test: Inhibition of amidolytic activity of factor VIIa/tissue factor complex, chromogenic substrate Chromozym-tPA
Type: biochemical
Details: 26 nM tissue factor, 9 nM soluble factor VIIa, room temperature, pH 7.5
Description: Measurements were carried out by an automated robotic assay on microtitre plates at room temperature. To this end, 100 μl of a solution of 26 nM of tissue factor, 9 nM of soluble factor VIIa and 8 mM of calcium chloride were added to 25 μl of a solution of the inhibitor in a buffer [pH 7.5, 100 mM, comprising 0.14M NaCl, 0.1M N-(2-hydroxyethyl)piperazine-N′-(2-ethanesulphonic acid) (HEPES), 0.5 mg/l of fatty-acid-free BSA (bovine serum albumin) and 0.05% NaN3] in each well of the plate. After an incubation time of 15 minutes the reaction was started by the addition of 50 μl of chromogenic substrate Chromozym-tPA (3.5 mM, MeSO2-D-Phe-Gly-Arg-paranitroamlide) and the hydrolysis of the substrate was followed spectrophotometrically on a kinetic microtitre plate reader over 10 minutes. Using the plot of the inhibition curves, the Ki values were determined according to the method described in Biochem. J. 55, 1953, 170-171.

T1 sequence (P08709 213-466 limits assumed): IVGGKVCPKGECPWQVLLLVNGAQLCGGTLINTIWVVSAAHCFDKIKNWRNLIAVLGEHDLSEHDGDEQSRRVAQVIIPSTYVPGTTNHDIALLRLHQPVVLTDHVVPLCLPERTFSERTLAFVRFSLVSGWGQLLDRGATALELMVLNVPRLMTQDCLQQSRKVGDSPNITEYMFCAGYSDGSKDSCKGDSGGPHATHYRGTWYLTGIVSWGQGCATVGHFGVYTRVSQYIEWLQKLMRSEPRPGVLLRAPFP
T1 sequence (P08709 61-212 limits assumed): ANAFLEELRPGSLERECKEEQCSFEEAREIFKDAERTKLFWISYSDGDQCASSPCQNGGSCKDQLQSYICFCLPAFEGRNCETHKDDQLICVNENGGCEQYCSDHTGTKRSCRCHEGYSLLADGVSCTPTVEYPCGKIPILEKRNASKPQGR
T1 sequence (P13726 33-295 partner): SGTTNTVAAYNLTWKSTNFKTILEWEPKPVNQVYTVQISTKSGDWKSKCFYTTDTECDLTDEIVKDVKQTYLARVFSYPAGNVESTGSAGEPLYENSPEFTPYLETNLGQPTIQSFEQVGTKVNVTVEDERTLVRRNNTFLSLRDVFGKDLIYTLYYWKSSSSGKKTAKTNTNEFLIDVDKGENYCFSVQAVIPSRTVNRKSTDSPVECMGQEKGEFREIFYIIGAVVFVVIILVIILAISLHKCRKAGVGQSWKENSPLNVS

| Ki [nM] | Compound |
| --- | --- |
| 62 | CNC(=O)COc1cc(C(=N)N)ccc1CNC(=O)c1cc(Cl)cc(Cl)c1 [Example 18.2, N-(4-carbamimidoyl-2-methylcarbamoylmethoxy-benzyl)-3,5-dichloro-benzamide hydrochloride] |
| 81 | CCOC(=O)CNc1cc(C(=N)N)ccc1CNC(=O)c1cccc(C)c1 [Example 24.1, {5-carbamimidoyl-2-[(3-methyl-benzoylamino)-methyl]-phenylamino}-acetic acid ethyl ester hydrochloride] |
| 51 | Cc1cc(C(=O)NCc2ccc(C(=N)N)cc2OCCNC(=O)c2ccccc2F)ccc1F [Example 42.2, N-{4-carbamimidoyl-2-[2-(2-fluoro-benzoylamino)-ethoxy]-benzyl}-4-fluoro-3-methyl-benzamide hydrochloride] |
